Key:
[1] = target: Cytochrome b (Homo sapiens, UniProt P00156); test: Cytochrome b Enzyme Assay; conditions: pH 7.4; 25 °C
Protocol: (§1) Reaction plates were incubated at room temperature for 10 min before reading absorbance at 550 nm. Absolute IC50 values were calculated in GraphPad Prism 6.0.

[2] = target: T1, Cytochrome b (Candida albicans, UniProt I2BJW5); test: Cytochrome b Enzyme Assay; conditions: pH 7.4; 25 °C
T1 sequence (I2BJW5 whole entry): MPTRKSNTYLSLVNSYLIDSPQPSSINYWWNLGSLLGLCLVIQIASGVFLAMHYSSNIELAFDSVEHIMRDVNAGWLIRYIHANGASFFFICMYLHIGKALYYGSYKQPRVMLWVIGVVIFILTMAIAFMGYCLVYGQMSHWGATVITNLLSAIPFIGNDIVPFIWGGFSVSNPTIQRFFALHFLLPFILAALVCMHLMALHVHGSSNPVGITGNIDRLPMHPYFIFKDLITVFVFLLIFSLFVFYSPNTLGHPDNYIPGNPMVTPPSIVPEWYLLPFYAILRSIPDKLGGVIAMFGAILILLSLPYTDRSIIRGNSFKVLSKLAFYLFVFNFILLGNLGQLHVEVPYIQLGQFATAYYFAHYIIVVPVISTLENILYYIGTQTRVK
Protocol: as §1

Cytochrome b (Homo sapiens, UniProt P00156), sequence (P00156 whole entry): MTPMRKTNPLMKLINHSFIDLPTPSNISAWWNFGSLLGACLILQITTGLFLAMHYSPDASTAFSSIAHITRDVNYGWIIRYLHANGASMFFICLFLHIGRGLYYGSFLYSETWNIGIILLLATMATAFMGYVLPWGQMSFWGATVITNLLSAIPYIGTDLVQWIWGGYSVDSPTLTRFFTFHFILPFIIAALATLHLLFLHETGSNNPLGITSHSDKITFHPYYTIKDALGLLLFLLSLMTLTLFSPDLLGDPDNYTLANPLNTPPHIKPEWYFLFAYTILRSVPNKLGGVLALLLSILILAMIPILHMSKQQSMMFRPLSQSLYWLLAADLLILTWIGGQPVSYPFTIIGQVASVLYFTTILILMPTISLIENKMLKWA

Structure (SMILES)	IC50 [1]	IC50 [2]
COC(=O)Cn1nc(-c2cccc(F)c2F)c2ccccc21 [Inz-60]	> 64 µM	1.43 µM
COC(=O)Cn1nc(-c2cc(F)ccc2F)c2ccccc21 [Inz-61]	> 64 µM	0.891 µM
COC(=O)Cn1nc(-c2cc(F)ccc2C)c2ccccc21 [Inz-62]	> 64 µM	4.7 µM
COC(=O)Cn1nc(-c2cccc(OCCN(C)C)c2)c2ccccc21 [Inz-63]	> 64 µM	35.2 µM
COC(=O)Cn1nc(-c2cccc(OCCC3CCCCC3)c2)c2ccccc21 [Inz-64]	3.23 µM	0.3 µM
CCN(CC)CCOc1cccc(-c2nn(CC(=O)OC)c3ccccc23)c1 [Inz-65]	> 64 µM	13.8 µM
COC(=O)Cn1nc(-c2cccc(OCc3ccccc3)c2C)c2ccccc21 [Inz-66]	> 64 µM	1.08 µM
COC(=O)Cn1nc(-c2cccc(OCCN(C(C)C)C(C)C)c2)c2ccccc21 [Inz-67]	19.3 µM	2.4 µM
COC(=O)Cn1nc(-c2cc(OCc3ccccc3)ccc2F)c2ccccc21 [Inz-68]	1.66 µM	0.0352 µM
COC(=O)Cn1nc(-c2cccc(OCc3ccccc3)c2F)c2ccccc21 [Inz-69]	> 64 µM	3.27 µM
COC(=O)Cn1nc(-c2cccc(F)c2)c2ccccc21 [Inz-70]	> 64 µM	5.91 µM
COC(=O)Cn1nc(-c2ccc(F)cc2F)c2ccccc21 [Inz-71]	> 64 µM	16.6 µM
c1ccc(-c2nn(Cc3nnco3)c3ccccc23)cc1 [Inz-72]	> 64 µM	17.9 µM
COC(=O)Cn1nc(-c2cccs2)c2ccccc21 [Inz-73]	> 64 µM	15.1 µM
COC(=O)Cn1nc(-c2cccc(OCCC(C)(C)C)c2)c2ccccc21 [Inz-74]	4.72 µM	0.657 µM
COC(=O)Cn1nc(-c2cccc(OCCC34CC5CC(CC(C5)C3)C4)c2)c2ccccc21 [Inz-75]	1.08 µM	1.14 µM
COC(=O)Cn1nc(-c2cccc(OCCCC3CCCCC3)c2)c2ccccc21 [Inz-76]	5.46 µM	1.8 µM
Cc1nc(Cn2nc(-c3ccccc3)c3ccccc32)no1 [Inz-77]	> 64 µM	> 64 µM
c1ccc(-c2nn(Cc3ncon3)c3ccccc23)cc1 [Inz-78]	> 64 µM	14.8 µM
c1ccc(-c2nn(Cc3c[nH]nn3)c3ccccc23)cc1 [Inz-79]	> 64 µM	> 64 µM
COC(=O)Cn1nc(-c2cc(OCCCC3CCCCC3)ccc2F)c2cccc(C)c21 [Inz-80]	0.79 µM	0.0388 µM
COC(=O)Cn1nc(-c2cc(OCCCC3CCCCC3)ccc2F)c2ccccc21 [Inz-81]	2.43 µM	0.129 µM
Cn1nnc(Cn2nc(-c3cc(OCCCC4CCCCC4)ccc3F)c3ccccc32)n1 [Inz-82]	12.3 µM	0.614 µM

Structure (SMILES)	IC50 [1]	IC50 [2]
Cn1nnc(Cn2nc(-c3cc(C(F)(F)F)ccc3F)c3ccccc32)n1 [Inz-83]	> 64 µM	1.22 µM
Cc1cccc2c(-c3cc(OCCCC4CCCCC4)ccc3F)nn(Cc3nnn(C)n3)c12 [Inz-84]	2.92 µM	0.154 µM
c1ccc(-c2nn(Cc3ccccn3)c3ccccc23)cc1 [Inz-85]	> 64 µM	> 64 µM
COC(=O)CNc1ccccc1Oc1ccccc1 [Inz-86]	> 64 µM	> 64 µM
CN(O)C(=O)Cn1nc(-c2ccccc2)c2ccccc21 [Inz-87]	> 64 µM	> 64 µM
O=C(Cn1nc(-c2ccccc2)c2ccccc21)NO [Inz-88]	> 64 µM	> 64 µM
FC(F)Cn1nc(-c2ccccc2)c2ccccc21 [Inz-89]	> 64 µM	> 64 µM
Brc1cccnc1Cn1nc(-c2ccccc2)c2ccccc21 [Inz-90]	> 64 µM	> 64 µM
N#Cc1ncccc1Cn1nc(-c2ccccc2)c2ccccc21 [Inz-91]	> 64 µM	> 64 µM
COC(=O)Cn1nc(-c2ccncc2)c2ccccc21 [Inz-92]	> 64 µM	> 64 µM
c1ccc(-c2nn(Cc3cncnc3)c3ccccc23)cc1 [Inz-93]	> 64 µM	> 64 µM
Fc1ccc(C(F)(F)F)cc1-c1nn(Cc2cnccn2)c2ccccc12 [Inz-94]	35.1 µM	0.449 µM
COc1cccc2c(-c3cc(C(F)(F)F)ccc3F)nn(Cc3cnccn3)c12 [Inz-95]	15.2 µM	0.437 µM
N#Cc1cccc2c(-c3cc(C(F)(F)F)ccc3F)nn(Cc3cnccn3)c12 [Inz-96]	> 64 µM	22.7 µM
Fc1ccc(C(F)(F)F)cc1-c1nn(Cc2cnccn2)c2ncccc12 [Inz-97]	54.4 µM	0.935 µM
Fc1ccc(C(F)(F)F)cc1-c1nn(Cc2cnccn2)c2ccncc12 [Inz-98]	> 64 µM	20.4 µM
Fc1ccc(C(F)(F)F)cc1-c1nn(Cc2cnccn2)c2cccnc12 [Inz-99]	> 64 µM	17.7 µM
Nc1ccc2c(-c3cc(C(F)(F)F)ccc3F)nn(Cc3cnccn3)c2c1 [Inz-100]	> 64 µM	5.48 µM
CC(=O)Nc1ccc2c(-c3cc(C(F)(F)F)ccc3F)nn(Cc3cnccn3)c2c1 [Inz-101]	> 64 µM	> 64 µM
CS(=O)(=O)N(c1ccc2c(-c3cc(C(F)(F)F)ccc3F)nn(Cc3cnccn3)c2c1)S(C)(=O)=O [Inz-102]	> 64 µM	> 64 µM
CNc1ccc2c(-c3cc(C(F)(F)F)ccc3F)nn(Cc3cnccn3)c2c1 [Inz-103]	> 64 µM	2.13 µM
COC(=O)Cc1nn(-c2ccccc2)c2ccccc12 [Inz-104]	> 64 µM	17.6 µM
CCCCCCC1C(=O)O[C@H](C)[C@H](NC(=O)c2cccc(NC=O)c2O)C(=O)O[C@@H](C)[C@@H]1OC(=O)CC(C)C (stereo partly drawn) [[(2R,3S,6S,7R)-3-[(3-formamido-2-hydroxybenzoyl)amino]-8-hexyl-2,6-dimethyl-4,9-dioxo-1,5-dioxonan-7-yl] 3-methylbutanoate]	0.007 µM	0.005 µM
